Data: patent publication US20080201790A1, “Method and product for regulating cell responsiveness to external signals” (priority 1993, published 2008)

How the values were obtained:
L929 fibroblasts = assay: TNF-induced apoptosis in L929 fibroblasts with Lac Switch MEKK1COOH expression; type: cell-based, murine
From the text: In L929 cells expressing the MEKK1COOH domain, exposure to TNF and IPTG increased the percentage of apoptotic cells to 40%, approximately a 2-fold increase.

JNK = JNK solid state kinase assay (GST-Jun) in L929 cells; type: cell-based, murine
Experimental: In panel A cells were treated for 10 minutes with the indicated concentration of TNFα. JNK activation was measured using a solid phase kinase assay resulting in phosphorylation of GST-Jun. In […] the time course of MAPK activation is shown. MAPK was isolated from cell lysates on DEAE sephacel columns and MAPK activation was measured by phosphorylation of the EGFR peptide substrate. Panel C depicts the concentration curve of MAPK activation by TNFα. Cells were treated with the indicated concentration of TNFα and MAPK was assayed.
Cell lines and culture. L929 cells (ATCC CCL1 were maintained in Dulbecco's modified Eagle's medium with 5% newborn calf serum and 5% bovine calf serum (BCS) supplemented with 100 ug/ml streptomycin and 100 U/ml penicillin. The cells were grown in 10 cm dishes at 37° C. in 7.5% CO2. Cells were made quiescent where indicated by incubation in Dulbecco's modified Eagle's medium and 0.1% bovine serum albumin for 24 h. Recombinant murine TNFα and recombinant human bFGF (147aa) were from R&D Systems, Minneapolis, Minn. Cells were pretreated where indicated with the MEK-1 inhibitor PD#098059 (Parke-Davis Pharmaceutical Corp. Ann Arbor, Mich.) for 1 h at 37° C. Cells were stimulated by incubation with the indicated cytokine or growth factor for various times at 37° C. Stimulation was stopped by rinsing the plates twice with ice cold phosphate buffered saline (PBS) and lysing the cells in the appropriate lysis buffer. Cells were scraped from the plates and nuclei were pelleted for 10 min at 14,000 RPM in a microcentrifuge. JNK assay. JNK activity was measured using a solid state kinase assay in which glutathione S-transferase-c-Jun (1-79) (GST-JUN) cound to glutathione-Sepharose 4B beads was used to affinity purify JNK and then JNK activity was measured in an in vitro kinase assay using the sepharose bound GST-Jun as a substrate (Hibi, M., et al. (1993) Genes & Development 7:2135-2148). Stimulated or unstimulated cells were lysed in 0.5% Nonidet P-40, 20 mM HEPES pH 7.2, 100 mM NaCl, 2 mM dithiothreitol, 1 mM EDTA, 1.0 mM phenylmethylsulfonylfluoride, 1 μg/ml aprotinin and the nuclei pelleted. Lysates were normalized for protein content. JNK was affinity purified from 50-100 μg of cell lysate by the addition of 10 ul of GST-Jun sepharose slurry (2 μg GST-Jun). Binding to GST-Jun efficiently isolates the two major forms of JNK (p45 and p55) and under the conditions used JNK isolation was linear for 10-250 μg of cell lysate. The lysates were rotated at 4° C. for 1-3 h. Beads were washed twice in lysis buffer and then twice in PAN (10 mM PIPES, pH 7.0, 100 mM NaCl, 21 μg/ml aprotinin). Kinase reactions were carried out at 30° C. for 15 min in 20 mM Hepes pH 7.2, 20 mM β-glycerophosphate, 10 mM p-nitrophenyl phosphate, 10 mM MgCl2, 1 mM dithiothreitol, 50 μm sodium vanadate, 10 μCi γ^32P-ATP 4300 Ci/mmole. The kinase reaction was linear from 0-30 min. MAPK Assay MAPK activity was measured exactly as described previously (Gardner, A. M., et al. (1994) Meth. Enzymol. 238:258-270) with the exception that MonoQ FPLC fractionation was replaced by step elution from a DEAE-Sephacel column using 0.5 M NaCl in loading buffer. The eluate was assayed in triplicate using the epidermal growth factor receptor 662-681 peptide (EGFR662-681) as a selective substrate for MAPK activity (Heasley, L. E., et al. (1994) American Journal of Physiology (Renal Fluid Electrolyte Physiol. 36) 267:F366-F373). […] Cells were lysed by scraping in ice cold RIPA buffer (50 mM Tris-HCl, pH 7.2, 150 mM NaCl, 0.1% SDS, 0.5% sodium deoxycholate, 1.0% Triton X-100, 10 mM sodium pyrophosphate, 25 mM β-glycerophosphate, 2 mM sodium vanadate, 2.1 μg/ml aprotinin) and the nuclei were pelletted. […]

MEKK1 = assay: Cellular localization of MEKK1 in Swiss 3T3 cells, antibody staining; type: cell-based; conditions: serum starved Swiss 3T3 cells, 10 minutes
From the text: (§1) Cells were fixed and stained with an antibody specifically recognizing either MEKK1 or MEKK2. Secondary FITC-conjugated anti-rabbit IgG antibody was used for staining.

MEKK2 = assay: Cellular localization of MEKK2 in Swiss 3T3 cells, antibody staining; type: cell-based; conditions: serum starved Swiss 3T3 cells, 10 minutes
From the text: as §1

Substance	percentage of apoptotic cells, control L929 cells (L929 fibroblasts; TNF exposure, presence or absence of IPTG)	level of apoptotic cells, L929 cells expressing the kinase inactive mutant (L929 fibroblasts; exposure to TNF)	increase of percentage of apoptotic cells, MEKK1COOH cells versus control (L929 fibroblasts; exposure to TNF and IPTG) [fold]	percentage of apoptotic cells, L929 cells expressing the MEKK1COOH domain (L929 fibroblasts; exposure to TNF and IPTG) [%]	JNK activation (JNK; 0.1 ng/ml TNFα)	JNK activity relative to basal (JNK; 1-2 hr post-stimulation)	concentration giving maximal JNK activation (JNK; L929 cells) [ng/mL]	time of peak JNK activity (JNK; L929 cells) [min]	cellular localization of MEKK1 (MEKK1)	cellular localization of MEKK2 (MEKK2)	effect on JNK activity (JNK; 2.5 ng/ml bFGF)	effect on TNFα stimulation of JNK (JNK; L929 cells)
TNFα	approximately 20%	did not increase the level of apoptotic cells above levels seen in controls	~2	40	greater than four-fold	two-fold above basal	1	10 to 15	had no effect on the cellular localization of MEKK1	induced a translocation of MEKK2 to the plasma membrane	–	–
bFGF: recombinant human bFGF (147aa), basic fibroblast growth factor	–	–	–	–	–	–	–	–	–	–	little or no effect on JNK activity	did not alter the magnitude of JNK activation in response to TNFα
